For 37 compounds, Ki results are on record in patent US9963453B2, “Substituted pyrazino[1,2-a]indoles as sigma receptor activity modulators” (LABORATORIOS DEL DR. ESTEVE S.A., priority 2013, dated 2018).

Counter-ions that a name gives are not always drawn.

For the assay, the target named is human sigma 1 receptor (Homo sapiens (Human), UniProt Q99720). Briefly: Human Sigma 1 Receptor Radioligand Assay. The class given is binding. The conditions noted are these: transfected HEK-293 membranes, 5 nM [3H](+)-pentazocine as radioligand, 37° C., 120 minutes. The method, then:
Human Sigma 1 Receptor Radioligand Assay
To investigate binding properties of sigma 1 receptor ligands to human sigma 1 receptor, transfected HEK-293 membranes and [^3H](+)-pentazocine (Perkin Elmer, NET-1056), as the radioligand, were used. The assay was carried out with 7 μg of membrane suspension, 5 nM of [^3H](+)-pentazocine in either absence or presence of either buffer or 10 μM Haloperidol for total and non-specific binding, respectively. Binding buffer contained Tris-HCl 50 mM at pH 8. Plates were incubated at 37° C. for 120 minutes. After the incubation period, the reaction mix was then transferred to MultiScreen HTS, FC plates (Millipore), filtered and plates were washed 3 times with ice-cold 10 mM TrisHCL (pH7.4). Filters were dried and counted at approximately 40% efficiency in a MicroBeta scintillation counter (Perkin-Elmer) using EcoScint liquid scintillation cocktail.

Sequence of human sigma 1 receptor (Q99720 whole entry): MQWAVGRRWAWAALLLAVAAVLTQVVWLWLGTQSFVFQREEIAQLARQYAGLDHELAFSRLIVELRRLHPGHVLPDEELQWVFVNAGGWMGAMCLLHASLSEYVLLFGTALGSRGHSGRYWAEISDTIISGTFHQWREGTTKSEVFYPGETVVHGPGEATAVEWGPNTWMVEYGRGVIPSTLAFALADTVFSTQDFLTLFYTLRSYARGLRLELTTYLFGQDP

Consider `O=C(CCCN1CCCCCC1)N1CCn2c(cc3cc(F)ccc32)C1` [Example 21, 4-(azepan-1-yl)-1-(8-fluoro-3,4-dihydropyrazino[1,2-a]indol-2(1H)-yl)butan-1-one], for which the affinity corresponds to a Ki of 0.0219 µM.
`O=C(CCCN1CCCCC1)N1CCn2c(cc3cc(F)ccc32)C1` [Example 16, 1-(8-fluoro-3,4-dihydropyrazino[1,2-a]indol-2(1H)-yl)-4-(piperidin-1-yl)butan-1-one]: the Ki (usually the dissociation constant of the complex between target and ligand, obtained from inhibition or displacement) was 0.0222 µM.
For `CC(C(=O)N1CCn2c(cc3ccccc32)C1)N1CCCCCC1` (stereo not shown) [Example 8, 2-(azepan-1-yl)-1-(3,4-dihydropyrazino[1,2-a]indol-2(1H)-yl)propan-1-one maleate], the affinity (maleate), expressed as Ki, was 0.0296 µM.
`C[C@@H](C(=O)N1CCN2c3ccccc3C[C@@H]2C1)N1CCN(C)CC1` [Example 33, (S)-2-(4-methylpiperazin-1-yl)-1-((R)-3,4,10,10a-tetrahydropyrazino[1,2-a]indol-2(1H)-yl)propan-1-one] displayed a Ki of 0.0843 µM.
Regarding `CC(C(=O)N1CCn2c(cc3ccccc32)C1)N1CCCCCC1` (stereo not shown) [Example 7, 2-(azepan-1-yl)-1-(3,4-dihydropyrazino[1,2-a]indol-2(1H)-yl)propan-1-one], the Ki was determined as 0.0248 µM.
The same measure, in the same setting: next, `C[C@H](C(=O)N1CCN2c3ccccc3C[C@@H]2C1)N1CCN(C2CCCCC2)CC1` [Example 54, (R)-2-(4-cyclohexylpiperazin-1-yl)-1-((R)-3,4,10,10a-tetrahydropyrazino[1,2-a]indol-2(1H)-yl)propan-1-one]: 0.0716 µM; `Cc1ccc2c(c1)cc1n2CCN(C(=O)C(C)N2CCCCCC2)C1` (stereo not shown) [Example 13, 2-(azepan-1-yl)-1-(8-methyl-3,4-dihydropyrazino[1,2-a]indol-2(1H)-yl)propan-1-one]: 0.0697 µM.
The compound `C[C@@H](C(=O)N1CCN2c3ccccc3C[C@H]2C1)N1CCN(C)CC1` [Example 34, (S)-2-(4-methylpiperazin-1-yl)-1-((S)-3,4,10,10a-tetrahydropyrazino[1,2-a]indol-2(1H)-yl)propan-1-one] came in with an inhibition constant Ki of 0.0565 µM.
Consider `CN1CCN(C(C)(C)C(=O)N2CCn3c(cc4ccccc43)C2)CC1` [Example 2, 1-(3,4-dihydropyrazino[1,2-a]indol-2(1H)-yl)-2-methyl-2-(4-methylpiperazin-1-yl)propan-1-one], for which the inhibition constant Ki came to 0.0961 µM.
Same read-out and setting: the figure for `CCN1CCN(C(C)C(=O)N2CCn3c(cc4cc(F)ccc43)C2)CC1` (stereo not shown) [Example 29, 2-(4-ethylpiperazin-1-yl)-1-(8-fluoro-3,4-dihydropyrazino[1,2-a]indol-2(1H)-yl)propan-1-one] is 0.125 µM; for `C[C@H](CN1CCN(C)CC1)C(=O)N1CCn2c(cc3ccccc32)C1` [Example 47, (R)-1-(3,4-dihydropyrazino[1,2-a]indol-2(1H)-yl)-2-methyl-3-(4-methylpiperazin-1-yl)propan-1-one] it is 0.0495 µM; for `Cc1c2n(c3ccccc13)CCN(C(=O)CN1CCCCC1)C2` [Example 14, 1-(10-methyl-3,4-dihydropyrazino[1,2-a]indol-2(1H)-yl)-2-(piperidin-1-yl)ethanone] it is 0.024 µM.
Still for that read-out and setting: next, `CC(C(=O)N1CCn2c(cc3ccccc32)C1)N1CCN(C)CC1` (stereo not shown) [Example 1, 1-(3,4-dihydropyrazino[1,2-a]indol-2(1H)-yl)-2-(4-methylpiperazin-1-yl)propan-1-one]: 0.105 µM.
On the same count and under the same terms, the figure for `CN(C)CCCC(=O)N1CCN2c3ccccc3CC2C1` (stereo not shown) [Example 43, 4-(dimethylamino)-1-(3,4,10,10a-tetrahydropyrazino[1,2-a]indol-2(1H)-yl)butan-1-one] is 0.151 µM; for `C[C@@H](C(=O)N1CCN2c3ccccc3C[C@H]2C1)N1CCN(C2CCCCC2)CC1` [Example 53, (S)-2-(4-cyclohexylpiperazin-1-yl)-1-((S)-3,4,10,10a-tetrahydropyrazino[1,2-a]indol-2(1H)-yl)propan-1-one] it is 0.0947 µM.
The compound `C[C@@H](C(=O)N1CCN2c3ccccc3C[C@@H]2C1)N1CCN(C2CCCCC2)CC1` [Example 52, (S)-2-(4-cyclohexylpiperazin-1-yl)-1-((R)-3,4,10,10a-tetrahydropyrazino[1,2-a]indol-2(1H)-yl)propan-1-one] gave a Ki of 0.142 µM.
On the same count and under the same terms, the figure for `O=C(CCCN1CCCCC1)N1CCn2c(cc3ccccc32)C1` [Example 20, 1-(3,4-dihydropyrazino[1,2-a]indol-2(1H)-yl)-4-(piperidin-1-yl)butan-1-one] is 0.0288 µM; for `CC(C(=O)N1CCn2c(cc3cc(F)ccc32)C1)N1CCN(C2CCCCC2)CC1` (stereo not shown) [Example 27, 2-(4-cyclohexylpiperazin-1-yl)-1-(8-fluoro-3,4-dihydropyrazino[1,2-a]indol-2(1H)-yl)propan-1-one] it is 0.0256 µM.
Same read-out and setting: the figure for `CC(CN1CCN(C)CC1)C(=O)N1CCn2c(cc3ccccc32)C1` (stereo not shown) [Example 41, 1-(3,4-dihydropyrazino[1,2-a]indol-2(1H)-yl)-2-methyl-3-(4-methylpiperazin-1-yl)propan-1-one] is 0.073 µM; for `O=C(CN1CCCCCC1)N1CCn2c(cc3ccccc32)C1` [Example 4, 2-(azepan-1-yl)-1-(3,4-dihydropyrazino[1,2-a]indol-2(1H)-yl)ethanone hydrochloride] it is 0.0102 µM; for `CC(CC(=O)N1CCn2c(cc3ccccc32)C1)N1CCN(C)CC1` (stereo not shown) [Example 3, 1-(3,4-dihydropyrazino[1,2-a]indol-2(1H)-yl)-3-(4-methylpiperazin-1-yl)butan-1-one] it is 0.0682 µM.
Still for that read-out and setting: the figure for `C[C@H](C(=O)N1CCN2c3ccccc3C[C@H]2C1)N1CCN(C)CC1` [Example 32, (R)-2-(4-methylpiperazin-1-yl)-1-((S)-3,4,10,10a-tetrahydropyrazino[1,2-a]indol-2(1H)-yl)propan-1-one] is 0.234 µM; for `O=C(CN1CCCCC1)N1CCn2c(cc3ccccc32)C1` [Example 5, 1-(3,4-dihydropyrazino[1,2-a]indol-2(1H)-yl)-2-(piperidin-1-yl)ethanone hydrochloride] it is 0.0398 µM; for `C[C@H](CC(=O)N1CCn2c(cc3ccccc32)C1)N1CCN(C)CC1` [Example 50, (R)-1-(3,4-dihydropyrazino[1,2-a]indol-2(1H)-yl)-3-(4-methylpiperazin-1-yl)butan-1-one] it is 0.251 µM.
The compound `CN1CCN(C(C)(C)C(=O)N2CCN3c4ccccc4CC3C2)CC1` (stereo not shown) [Example 44, 2-methyl-2-(4-methylpiperazin-1-yl)-1-(3,4,10,10a-tetrahydropyrazino[1,2-a]indol-2(1H)-yl)propan-1-one] registered a Ki of 0.175 µM.
As for `CC(C(=O)N1CCN2c3ccccc3CC2C1)N1CCN(C)CC1` (stereo not shown) [Example 25, 2-(4-methylpiperazin-1-yl)-1-(3,4,10,10a-tetrahydropyrazino[1,2-a]indol-2(1H)-yl)propan-1-one], affinity was put at a Ki of 0.118 µM.
In turn, `CCC(C(=O)N1CCn2c(cc3ccccc32)C1)N(C)CCN(C)C` (stereo not shown) [Example 39, 1-(3,4-dihydropyrazino[1,2-a]indol-2(1H)-yl)-2-((2-(dimethylamino)ethyl)(methyl)amino)butan-1-one] registered a Ki of 0.427 µM.
In turn, `CN(C)CCCC(=O)N1CCn2c(cc3ccccc32)C1` [Example 11, 1-(3,4-dihydropyrazino[1,2-a]indol-2(1H)-yl)-4-(dimethylamino)butan-1-one] came in with a Ki of 0.0608 µM.
`O=C(CN1CCC(Cc2ccccc2)CC1)N1CCn2c(cc3ccccc32)C1` [Example 6, 2-(4-benzylpiperidin-1-yl)-1-(3,4-dihydropyrazino[1,2-a]indol-2(1H)-yl)ethanone hydrochloride] registered a Ki of 0.0144 µM.
On the same count and under the same terms, the figure for `C[C@@H](CC(=O)N1CCn2c(cc3ccccc32)C1)N1CCN(C)CC1` [Example 49, (S)-1-(3,4-dihydropyrazino[1,2-a]indol-2(1H)-yl)-3-(4-methylpiperazin-1-yl)butan-1-one] is 0.0917 µM; for `CC(C(=O)N1CCn2c(cc3ccccc32)C1)N1CCCCC1` (stereo not shown) [Example 9, 1-(3,4-dihydropyrazino[1,2-a]indol-2(1H)-yl)-2-(piperidin-1-yl)propan-1-one] it is 0.129 µM.
Regarding `O=C(CCN1CCCCCC1)N1CCn2c(cc3ccccc32)C1` [Example 17, 3-(azepan-1-yl)-1-(3,4-dihydropyrazino[1,2-a]indol-2(1H)-yl)propan-1-one], the Ki is 0.0109 µM.
The compound `CC(C(=O)N1CCn2c(cc3ccccc32)C1)N1CCC(Cc2ccccc2)CC1` (stereo not shown) [Example 10, 2-(4-benzylpiperidin-1-yl)-1-(3,4-dihydropyrazino[1,2-a]indol-2(1H)-yl)propan-1-one] gave a Ki of 0.025 µM.
Regarding `CC[C@@H](C(=O)N1CCn2c(cc3ccccc32)C1)N1CCN(C)CC1` [Example 46, (S)-1-(3,4-dihydropyrazino[1,2-a]indol-2(1H)-yl)-2-(4-methylpiperazin-1-yl)butan-1-one], the Ki is 0.0755 µM.
As to `CC(C(=O)N1CCn2c(cc3cc(F)ccc32)C1)N1CCN(C)CC1` (stereo not shown) [Example 26, 1-(8-fluoro-3,4-dihydropyrazino[1,2-a]indol-2(1H)-yl)-2-(4-methylpiperazin-1-yl)propan-1-one], the Ki is 0.123 µM.
Same read-out and setting: the figure for `CC(C(=O)N1CCn2c(cc3ccccc32)C1)N1CCC(N2CCCCC2)CC1` (stereo not shown) [Example 37, 2-(1,4′-bipiperidin-1′-yl)-1-(3,4-dihydropyrazino[1,2-a]indol-2(1H)-yl)propan-1-one] is 0.5 µM; for `CCC(C(=O)N1CCn2c(cc3ccccc32)C1)N1CCN(C)CC1` (stereo not shown) [Example 38, 1-(3,4-dihydropyrazino[1,2-a]indol-2(1H)-yl)-2-(4-methylpiperazin-1-yl)butan-1-one] it is 0.0893 µM.
